# From patent US11479802B2, “Assays for screening activity of modulators of members of the hydroxy steroid (17-beta) dehydrogenase (HSD17B) family” (Regeneron Pharmaceuticals, Inc., priority 2017, dated 2022)
# Structures can show the parent of a compound that is named as a salt.
# Molecular target: T1, human HSD17B13 (Homo sapiens, UniProt Q7Z5P4)
# T1 sequence (Q7Z5P4 20-300): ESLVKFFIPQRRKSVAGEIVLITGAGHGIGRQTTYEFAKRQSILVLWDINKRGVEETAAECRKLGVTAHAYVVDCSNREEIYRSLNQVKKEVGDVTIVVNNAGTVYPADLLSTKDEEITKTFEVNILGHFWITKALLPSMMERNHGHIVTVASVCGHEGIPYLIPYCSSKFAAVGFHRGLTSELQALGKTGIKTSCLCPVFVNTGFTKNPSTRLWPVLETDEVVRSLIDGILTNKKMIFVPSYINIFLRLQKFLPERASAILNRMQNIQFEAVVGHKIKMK
# Assay: Substrate screening of steroid and bioactive lipid libraries against purified recombinant HSD17B13 (NADH-linked luciferase assay)
# Format: biochemical
# Settings: for HSD17B13 Enzymatic Activity Relative Light Units: 500 μM NAD+, 100 ng enzyme, 3 hours at 23° C.; for HSD17B13 Enzymatic Activity Percent Estradiol Control: normalized to 50 μM estradiol after subtraction of 5% DMSO
# Experimental: To understand the functional consequences of premature truncation of the HSD17B13 protein due to rs72613567:TA (the associated variant, rs72613567, is an insertion of an adenine adjacent to the donor splice site of exon six (TA allele)), the enzymatic activity of isoforms A and D was evaluated in vitro using recombinant protein and nicotinamide […] dinucleotide as cofactor. Reactions were performed in a final volume of 40 μl of assay buffer (0.2 M Tris-HCl, pH 7.5) which contained 500 μM NAD^+, 5 μM bioactive lipid or 50 μM steroid (all in a final concentration of 5% DMSO), and 100 ng of recombinant human HSD17B13. Reactions were incubated for 3 hours, at 23° C., after which an equal volume detection reagent was added. Following a 1 hour incubation at 23° C., the relative light units (RLUs) were measured on an Envision Plate Reader (Perkin Elmer). Raw RLU values were normalized as percent of control (50 μM estradiol) following subtraction of negative control (5% DMSO) using the following formula: Percent of control (POC)=100×(Sample (RLU)−Negative CTRLaverage)/(Positive CTRLaverage−Negative CTRLaverage).
# [1] = Bioactive Lipid Library, 5 μM bioactive lipid (Estradiol Control 50 μM)
# [2] = Bioactive Lipid Library, 5 μM bioactive lipid
Compound,HSD17B13 Enzymatic Activity Relative Light Units [1],HSD17B13 Enzymatic Activity Percent Estradiol Control [2],"HSD17B13 Enzymatic Activity Relative Light Units (Steroid Library, 50 μM steroid)","HSD17B13 Enzymatic Activity Percent Estradiol Control (Steroid Library, 50 μM steroid)"
"CCCCCC(=O)CC[C@@H]1[C@@H](CC(=O)CCCCC(=O)O)[C@@H](O)C[C@H]1O [6,15-diketo-13,14-dihydro Prostaglandin F1α]",262680 RLU,−1.61%,,
CCCCC/C=C\C/C=C\C/C=C\C=C\[C@@H](O)CCCC(=O)O (racemic) [(±)5-HETE],431960 RLU,10.79%,,
CC/C=C\C[C@H]1O[C@H]1C/C=C\C/C=C\C/C=C\C/C=C\CCC(=O)O (racemic) [(±)16(17)-EpDPA],274120 RLU,−0.71%,,
CCCCC/C=C\C[C@@H](O)/C=C/c1cccc(C[C@@H](O)CCCCO)n1 [U-75302],425520 RLU,7.59%,,
"CCCCC[C@H](O)/C=C/C=C\C/C=C\C=C\[C@@H](O)CCCC(=O)O [5(S),15(S)-DiHETE]",486600 RLU,14.86%,,
"15-deoxy-Δ12,14-Prostaglandin J2-biotin",252400 RLU,−2.43%,,
CCCCC/C=C\CC(O)C(O)CCCCCCCC(=O)O (racemic) [(±)9(10)-DiHOME],391000 RLU,4.98%,,
CCCCC/C=C\C=C\[C@@H](O)C/C=C\C/C=C\CCCC(=O)O [11(S)-HETE],696400 RLU,30.46%,,
CCCCC/C=C\C=C\[C@@H](O)CCCCCCCCCC(=O)O [11(S)-HEDE],1056440 RLU,57.23%,,
CCCCC/C=C\C/C=C\C[C@@H](O)/C=C/C=C\CCCC(=O)O [9(R)-HETE],1656640 RLU,101.86%,,
CC/C=C\C[C@H](O)/C=C/[C@@H]1[C@@H](CC(=O)CCCCC(=O)O)[C@@H](O)C[C@H]1O [Δ17-6-keto Prostaglandin F1α],286120 RLU,0.24%,,
CCCCC/C=C\CC(O)C(O)C/C=C\C/C=C\CCCC(=O)O (racemic) [(±)11(12)-DiHET],599000 RLU,20.69%,,
CCCCC(C)(O)C/C=C/[C@H]1[C@@H](O)CC(=O)[C@@H]1CCCCCCC(=O)OC (stereo partly drawn) [11β-Misoprostol],331200 RLU,3.80%,,
"CCCCC[C@H](O)/C=C/C=C\C=C\[C@@H](O)C/C=C\CCCC(=O)O [8(S),15(S)-DiHETE]",410440 RLU,9.19%,,
[2H]C([2H])(CC(=O)CC[C@H]1C(=O)C[C@H](O)[C@@H]1CCC(=O)O)C([2H])([2H])C([2H])([2H])C(=O)O [tetranor-PGDM-d6],375520 RLU,3.81%,,
C[C@@H](O)CCC[C@H](O)/C=C/[C@@H]1[C@@H](C/C=C\CCCC(=O)O)[C@@H](O)C[C@H]1O [19(R)-hydroxy Prostaglandin F2α],371400 RLU,6.98%,,
CCCCC/C=C\C[C@H](O)/C=C/C=C/C=C\[C@@H](O)CCCC(=O)O [12-epi Leukotriene B4],389240 RLU,8.39%,,
"O=C(O)CCCC=C1CC2CC(O)C(C#CC(O)C3CCCCC3)C2C1 (stereo not shown) [13,14-dehydro-15-cyclohexyl Carbaprostacyclin]",356360 RLU,5.79%,,
CCCCC/C=C\CC(/C=C/C=C\C/C=C\CCCC(=O)O)OO (racemic) [(±)12-HpETE],165800 RLU,−9.27%,,
CCCCC/C=C\C[C@@H](O)/C=C/C=C\CCC(=O)O [tetranor-12(R)-HETE],708640 RLU,31.37%,,
CN(C)C(=O)CCSC(SCCC(=O)O)c1cccc(/C=C/c2ccc3ccc(Cl)cc3n2)c1 (stereo not shown) [MK-571],281520 RLU,−0.12%,,

Compound,HSD17B13 Enzymatic Activity Relative Light Units [1],HSD17B13 Enzymatic Activity Percent Estradiol Control [2],"HSD17B13 Enzymatic Activity Relative Light Units (Steroid Library, 50 μM steroid)","HSD17B13 Enzymatic Activity Percent Estradiol Control (Steroid Library, 50 μM steroid)"
"Ptdlns-(3)-P1 (1,2-dipalmitoyl) (ammonium salt)",15520 RLU,−23.38%,,
CCCCC[C@H](O)/C=C/C=C\C=C\C=C\[C@@H](O)[C@@H](O)CCCC(=O)O [Lipoxin A4],352680 RLU,2.09%,,
CC(=O)S[C@@H]1CC2=CC(=O)CC[C@]2(C)[C@H]2CC[C@@]3(C)[C@@H](CC[C@@]34CCC(=O)O4)[C@H]12 [Spironolactone],,,184280 RLU,0.41%
CCCCC/C=C\C/C=C\C[C@H]1O[C@H]1C/C=C\CCCC(=O)NCCO [8(9)-EET Ethanolamide],446000 RLU,9.14%,,
CC/C=C\C[C@H](O)/C=C/C=C\CCCCCCCC(=O)O [13(S)-HOTrE],528240 RLU,17.95%,,
"CCCCC[C@H](O)/C=C/[C@@H]1[C@@H](C/C=C\CC(=O)O)[C@@H](O)C[C@@H]1O [2,3-dinor-11β-Prostaglandin F2α]",265000 RLU,−1.43%,,
CC/C=C\C/C=C\C/C=C\C/C=C\C/C=C\CC1OC1CCC(=O)OC (racemic) [(±)4(5)-EpDPA methyl ester],338320 RLU,1.00%,,
CCCCC[C@H](O)/C=C/[C@H]1[C@H](O)CC(=O)[C@@H]1C/C=C\CCCC(=O)Oc1ccc(NC(=O)c2ccccc2)cc1 [Prostaglandin E2 p-benzamidophenyl ester],404280 RLU,9.58%,,
C[C@@H](O)CCC[C@H](O)/C=C/[C@H]1C=CC(=O)[C@@H]1C/C=C\CCCC(=O)O [19(R)-hydroxy Prostaglandin A2],323320 RLU,3.18%,,
CCCCCC(O)/C=C/C=C\CCCCCCCCCC(=O)O (racemic) [(±)15-HEDE],1430720 RLU,85.06%,,
C=CCc1ccc(O)c(-c2ccc(O)c(CC=C)c2)c1 [Honokiol],,,52920 RLU,−1.88%
"C[C@@H](O)CCC[C@H](O)CC[C@H]1[C@H](O)CC(=O)[C@@H]1CCCCCCC(=O)O [13,14-dihydro-19(R)-hydroxy Prostaglandin E1]",337040 RLU,4.26%,,
O=P(O)(O)OC1[C@@H](O)[C@@H](O)C(O)[C@H](O)[C@H]1O (stereo partly drawn) [D-myo-Inositol-4-phosphate (ammonium salt)],408880 RLU,6.33%,,
CCCCC/C=C\C/C=C\C/C=C\C=C\[C@@H](O)CCCC(=O)OC (racemic) [(±)5-HETE methyl ester],337600 RLU,3.78%,,
"C[C@@H](O)CCC[C@@H](O)/C=C/[C@@H]1[C@@H](C/C=C\CCCC(=O)O)[C@@H](O)C[C@H]1O [15(R),19(R)-hydroxy Prostaglandin F2α]",382720 RLU,7.88%,,
"Ptdlns-(3)-P1 (1,2-dioctanoyl) (sodium salt)",319680 RLU,−0.40%,,
CCCCC/C=C\C=C\[C@H](O)CCCCCCCC(=O)O [9(R)-HODE],413280 RLU,9.40%,,
CCCCCC(O)/C=C/C=C\CCCCCCCC(=O)O (racemic) [(±)13-HODE],954080 RLU,49.62%,,
CC/C=C\C[C@H](O)/C=C/[C@H]1[C@H](O)CC(=O)[C@@H]1C/C=C\CCCC(=O)O [Prostaglandin E3],379960 RLU,7.66%,,
CC/C=C\C[C@H](O)/C=C/[C@H]1C=CC(=O)[C@@H]1C/C=C\CCCC(=O)O [Prostaglandin A3],227000 RLU,−4.43%,,
